Converted amounts (≈) assume the structure as drawn.
Tests used:
Type in all cases: in vivo, Pepper mild mottle virus (PMMoV)
[1] = test system: PMMoV; assay: Antiviral activity assay against PMMoV, protective activity; design: Protective activity: concentration or dose not given beside the values; conditions: against PMMoV, average of three replicates, ± standard deviation; for EC50: Pepper mild mottle virus, read-out: EC50 of protective activity
Procedure: (§1) Virions were isolated and extracted from leaves of N. benthamiana infected with PMMoV referring to the method recorded in the literature. And the inhibiting activities of C1–C38 against PMMoV were assessed with reference to the literature as well [26, 34].

[2] = test system: PMMoV; assay: Antiviral activity assay against PMMoV, curative activity; design: Curative activity: concentration or dose not given beside the values; conditions: against PMMoV, average of three replicates, ± standard deviation; for EC50: Pepper mild mottle virus, read-out: EC50 of curative activity
Procedure: as §1

[3] = test system: PMMoV; assay: Antiviral activity assay against PMMoV, inactivating activity; conditions: against PMMoV, average of three replicates, ± standard deviation; for pest or weed control at 500 µg/mL / EC50: Pepper mild mottle virus; for pest or weed control at 500 µg/mL: read-out: Inactivating activity; for EC50: read-out: EC50 of inactivating activity; for pest or weed control at 500 µg/mL / Inactivating activity: at 500 µg/mL
Procedure: as §1

Row | Compound | EC50 [1] [µg/mL] | EC50 [2] [µg/mL] | EC50 [3] [µg/mL] | Protective activity [1] [%] | Curative activity [2] [%] | pest or weed control at 500 µg/mL [3] [%] | Inactivating activity [3] [%]
1 | CC(=O)OCC1OC(n2cnc3c(N4CCOCC4)nc(F)nc32)C(NS(=O)(=O)c2ccc([N+](=O)[O-])cc2)C(OC(C)=O)C1OC(C)=O (centres unmarked) [C3] | 388 ± 16.6 (≈ 557 µM) | 11.5 ± 4.4 (≈ 16.5 µM) | 198 ± 16.1 (≈ 285 µM) | 57.5 ± 4.3 | 67.0 ± 3.6 | 68.9 ± 4.9 | –
2 | CC(=O)OCC1OC(n2cnc3c(N4CCOCC4)nc(Cl)nc32)C(NS(=O)(=O)c2ccc([N+](=O)[O-])cc2)C(OC(C)=O)C1OC(C)=O (centres unmarked) [C4] | 475 ± 15.8 (≈ 667 µM) | 219 ± 9 (≈ 308 µM) | 141 ± 12.1 (≈ 198 µM) | 52.6 ± 2.0 | 61.2 ± 3.7 | 64.1 ± 3.5 | –
3 | CC(=O)OCC1OC(n2cnc3c(N4CCOCC4)ncnc32)C(NS(=O)(=O)c2cccc([N+](=O)[O-])c2)C(OC(C)=O)C1OC(C)=O (centres unmarked) [C5] | 2280 ± 24.8 (≈ 3370 µM) | 63.8 ± 5.3 (≈ 94.1 µM) | 622 ± 14.7 (≈ 918 µM) | 43.3 ± 2.3 | 60.3 ± 2.5 | 47.5 ± 1.4 | –
4 | CC(=O)OCC1OC(n2cnc3c(N4CCOCC4)ncnc32)C(NS(=O)(=O)c2ccccc2[N+](=O)[O-])C(OC(C)=O)C1OC(C)=O (centres unmarked) [C6] | 358 ± 12.3 (≈ 528 µM) | 132 ± 9.4 (≈ 194 µM) | 182 ± 7.8 (≈ 268 µM) | 52.0 ± 2.3 | 67.0 ± 4.9 | 60.8 ± 1.9 | –
5 | CC(=O)OCC1OC(n2cnc3c(N4CCOCC4)ncnc32)C(NS(=O)(=O)c2ccc(C#N)cc2)C(OC(C)=O)C1OC(C)=O (centres unmarked) [C7] | 793 ± 17.1 (≈ 1210 µM) | 281 ± 10.3 (≈ 427 µM) | 2415 ± 17.2 (≈ 3670 µM) | 44.7 ± 1.4 | 55.8 ± 1.3 | 36.6 ± 3.2 | –
6 | CC(=O)OCC1OC(n2cnc3c(N4CCOCC4)nc(Cl)nc32)C(NS(=O)(=O)c2ccc(C#N)cc2)C(OC(C)=O)C1OC(C)=O (centres unmarked) [C8] | 1040 ± 19.4 (≈ 1510 µM) | 64.6 ± 4.6 (≈ 93.3 µM) | 222 ± 4.8 (≈ 321 µM) | 44.3 ± 1.8 | 69.6 ± 1.3 | 56.6 ± 4 | –
7 | CC(=O)OCC1OC(n2cnc3c(N4CCOCC4)ncnc32)C(NS(=O)(=O)c2ccc(Cl)cc2)C(OC(C)=O)C1OC(C)=O (centres unmarked) [C9] | 267 ± 8.6 (≈ 401 µM) | 33.3 ± 1.2 (≈ 49.9 µM) | 103 ± 9.1 (≈ 155 µM) | 58.9 ± 4.0 | 70.9 ± 4.9 | 65.8 ± 3.9 | –
8 | CC(=O)OCC1OC(n2cnc3c(N4CCOCC4)ncnc32)C(NS(=O)(=O)c2cccc(Cl)c2)C(OC(C)=O)C1OC(C)=O (centres unmarked) [C10] | 17.8 ± 2.1 (≈ 26.7 µM) | 22.2 ± 3.4 (≈ 33.3 µM) | 16.3 ± 1.9 (≈ 24.4 µM) | 67.0 ± 4.3 | 62.1 ± 5.8 | 60.5 | 60.5 ± 1.8
9 | CC(=O)OCC1OC(n2cnc3c(N4CCOCC4)nc(N)nc32)C(NS(=O)(=O)c2cccc(Cl)c2)C(OC(C)=O)C1OC(C)=O (centres unmarked) [C11] | 225 ± 11.9 (≈ 329 µM) | 372 ± 18.4 (≈ 545 µM) | 497.1 ± 3 (≈ 729 µM) | 58.8 ± 3.1 | 51.8 ± 1.0 | 51.8 ± 2.1 | –
10 | COc1ccc(S(=O)(=O)NC2C(OC(C)=O)C(OC(C)=O)C(COC(C)=O)OC2n2cnc3c(N4CCOCC4)ncnc32)cc1 (centres unmarked) [C12] | 134 ± 7.4 (≈ 203 µM) | 53 ± 2.1 (≈ 80 µM) | 43.1 ± 1.1 (≈ 65 µM) | 65.6 ± 4.7 | 63.5 ± 2.6 | 71.5 ± 5 | –
11 | COc1ccc(S(=O)(=O)NC2C(OC(C)=O)C(OC(C)=O)C(COC(C)=O)OC2n2cnc3c(N4CCOCC4)nc(F)nc32)cc1 (centres unmarked) [C13] | 596 ± 10.9 (≈ 876 µM) | 20.9 ± 3 (≈ 30.7 µM) | 458.1 ± 3.3 (≈ 673 µM) | 46.5 ± 3.4 | 72.5 ± 2.6 | 47.3 ± 2.7 | –
12 | COc1ccc(S(=O)(=O)NC2C(OC(C)=O)C(OC(C)=O)C(COC(C)=O)OC2n2cnc3c(N4CCOCC4)nc(N)nc32)cc1 (centres unmarked) [C14] | 926 ± 11.4 (≈ 1370 µM) | 100 ± 8.9 (≈ 148 µM) | 4507 ± 24.2 (≈ 6650 µM) | 38.3 ± 4.4 | 53.6 ± 2.4 | 38.5 ± 2 | –
13 | CC(=O)OCC1OC(n2cnc3c(N4CCOCC4)ncnc32)C(NS(=O)(=O)c2ccc(Br)cc2)C(OC(C)=O)C1OC(C)=O (centres unmarked) [C15] | 103 ± 6.4 (≈ 145 µM) | 61 ± 5.4 (≈ 85.7 µM) | 593 ± 13.7 (≈ 833 µM) | 62.5 ± 3.3 | 65.6 ± 3.4 | 47.7 ± 0.69 | –
14 | CC(=O)OCC1OC(n2cnc3c(N4CCOCC4)ncnc32)C(NS(=O)(=O)c2cccc(Br)c2)C(OC(C)=O)C1OC(C)=O (centres unmarked) [C16] | 664 ± 12.4 (≈ 933 µM) | 48.5 ± 3.1 (≈ 68.2 µM) | 171 ± 9.6 (≈ 241 µM) | 45.3 ± 2.5 | 58.9 ± 4.2 | 55.9 ± 1.5 | –

Second part, led by results:

Row | EC50 [1] [µg/mL] | EC50 [2] [µg/mL] | EC50 [3] [µg/mL] | Compound | Protective activity [1] [%] | Curative activity [2] [%] | pest or weed control at 500 µg/mL [3] [%] | Inactivating activity [3] [%]
15 | 140 ± 9.5 (≈ 197 µM) | 16.1 ± 2.7 (≈ 22.6 µM) | 84 ± 2.8 (≈ 118 µM) | CC(=O)OCC1OC(n2cnc3c(N4CCOCC4)ncnc32)C(NS(=O)(=O)c2ccccc2Br)C(OC(C)=O)C1OC(C)=O (centres unmarked) [C17] | 61.0 ± 5.3 | 70.5 ± 3.8 | 59.9 ± 4 | –
16 | 994 ± 11.2 (≈ 1570 µM) | 24.7 ± 1.3 (≈ 39 µM) | 134 ± 8.5 (≈ 212 µM) | CC(=O)OCC1OC(n2cnc3c(N4CCOCC4)ncnc32)C(NS(=O)(=O)c2ccccc2)C(OC(C)=O)C1OC(C)=O (centres unmarked) [C18] | 41.9 ± 2.9 | 63.5 ± 2.5 | 61.3 ± 2.8 | –
17 | 159 ± 11.8 (≈ 245 µM) | 36.7 ± 3.7 (≈ 56.4 µM) | 25.5 ± 4 (≈ 39.2 µM) | CC(=O)OCC1OC(n2cnc3c(N4CCOCC4)nc(F)nc32)C(NS(=O)(=O)c2ccccc2)C(OC(C)=O)C1OC(C)=O (centres unmarked) [C19] | 59.8 ± 3.6 | 69.5 ± 4.7 | 69.7 ± 1.9 | –
18 | 292 ± 17.6 (≈ 438 µM) | 30.1 ± 3.5 (≈ 45.1 µM) | 28.5 ± 4.2 (≈ 42.7 µM) | CC(=O)OCC1OC(n2cnc3c(N4CCOCC4)nc(Cl)nc32)C(NS(=O)(=O)c2ccccc2)C(OC(C)=O)C1OC(C)=O (centres unmarked) [C20] | 54.8 ± 2.8 | 74.8 ± 4.8 | 72 ± 4.2 | –
19 | 74 ± 5.1 (≈ 110 µM) | 61.6 ± 5.3 (≈ 91.3 µM) | 83.2 ± 3.7 (≈ 123 µM) | CC(=O)OCC1OC(n2cnc3c(N4CCOCC4)ncnc32)C(NS(=O)(=O)c2c(C)cc(C)cc2C)C(OC(C)=O)C1OC(C)=O (centres unmarked) [C21] | 60.7 ± 2.5 | 66.9 ± 1.8 | 68.7 ± 4.5 | –
20 | 38 ± 3.5 (≈ 55.1 µM) | 26.2 ± 1.3 (≈ 38 µM) | 13.7 ± 1.6 (≈ 19.9 µM) | CC(=O)OCC1OC(n2cnc3c(N4CCOCC4)nc(N)nc32)C(NS(=O)(=O)c2c(C)cc(C)cc2C)C(OC(C)=O)C1OC(C)=O (centres unmarked) [C22] | 61.2 ± 1.6 | 67.6 ± 1.9 | 61.3 | 61.3 ± 4.5
21 | 145 ± 7.7 (≈ 204 µM) | 11.3 ± 3.3 (≈ 15.9 µM) | 240 ± 17.8 (≈ 338 µM) | CC(=O)OCC1OC(n2cnc3c(N4CCOCC4)nc(Cl)nc32)C(NS(=O)(=O)c2c(C)cc(C)cc2C)C(OC(C)=O)C1OC(C)=O (centres unmarked) [C23] | 57.4 ± 1.6 | 69.0 ± 3.5 | 55.4 ± 2.6 | –
22 | 788 ± 12.8 (≈ 1120 µM) | 45.1 ± 4.7 (≈ 64.4 µM) | 632 ± 15.2 (≈ 902 µM) | CC(=O)OCC1OC(n2cnc3c(N4CCOCC4)ncnc32)C(NS(=O)(=O)c2ccc(C(F)(F)F)cc2)C(OC(C)=O)C1OC(C)=O (centres unmarked) [C26] | 44.5 ± 1.6 | 67.6 ± 2.5 | 45.5 ± 2.6 | –
23 | 534 ± 14.9 (≈ 726 µM) | 51.1 ± 3.6 (≈ 69.5 µM) | 184 ± 10 (≈ 251 µM) | CC(=O)OCC1OC(n2cnc3c(N4CCOCC4)nc(Cl)nc32)C(NS(=O)(=O)c2ccc(C(F)(F)F)cc2)C(OC(C)=O)C1OC(C)=O (centres unmarked) [C27] | 45.0 ± 3.4 | 69.9 ± 3.6 | 62.4 ± 4.7 | –
24 | 633 ± 13.6 (≈ 881 µM) | 45.4 ± 3 (≈ 63.2 µM) | 576 ± 14.9 (≈ 801 µM) | CC(=O)OCC1OC(n2cnc3c(N4CCOCC4)nc(F)nc32)C(NS(=O)(=O)c2ccc(C(F)(F)F)cc2)C(OC(C)=O)C1OC(C)=O (centres unmarked) [C28] | 42.9 ± 0.7 | 69.4 ± 4.9 | 44 ± 4.3 | –
25 | 88.4 ± 6.3 (≈ 126 µM) | 64.8 ± 3.1 (≈ 92.5 µM) | 353 ± 18.7 (≈ 504 µM) | CC(=O)OCC1OC(n2cnc3c(N4CCOCC4)ncnc32)C(NS(=O)(=O)c2cccc(C(F)(F)F)c2)C(OC(C)=O)C1OC(C)=O (centres unmarked) [C29] | 64.9 ± 4.7 | 69.8 ± 4.3 | 53.4 ± 0.8 | –
26 | 262 ± 10.3 (≈ 402 µM) | 60.2 ± 3.1 (≈ 92.5 µM) | 20.4 ± 4.9 (≈ 31.4 µM) | CC(=O)OCC1OC(n2cnc3c(N4CCOCC4)ncnc32)C(NS(=O)(=O)c2ccc(F)cc2)C(OC(C)=O)C1OC(C)=O (centres unmarked) [C30] | 58.9 ± 3.8 | 67.9 ± 3.3 | 61.7 ± 4.6 | –
27 | 99.6 ± 3.8 (≈ 149 µM) | 29.6 ± 1.1 (≈ 44.3 µM) | 50 ± 2 (≈ 74.8 µM) | CC(=O)OCC1OC(n2cnc3c(N4CCOCC4)nc(F)nc32)C(NS(=O)(=O)c2ccc(F)cc2)C(OC(C)=O)C1OC(C)=O (centres unmarked) [C31] | 56.0 ± 1.9 | 61.9 ± 3.3 | 68.5 ± 1.7 | –
28 | 28.7 ± 4.4 (≈ 41.9 µM) | 23.8 ± 5.5 (≈ 34.7 µM) | 38 ± 4.4 (≈ 55.5 µM) | CC(=O)OCC1OC(n2cnc3c(N4CCOCC4)nc(Cl)nc32)C(NS(=O)(=O)c2ccc(F)cc2)C(OC(C)=O)C1OC(C)=O (centres unmarked) [C32] | 68.9 ± 2.0 | 68.0 ± 2.7 | 67.9 ± 5.1 | –

— article PMC12957839, “Antiviral activity and mechanism of purine morpholine nucleoside analogues incorporating a sulfonamide fragment” (Journal of Advanced Research, 2025)
